Results taken from patent US20250019382A1, “NOVEL INHIBITORS OF CYCLIN-DEPENDENT KINASES” (Origenis Gmbh, priority 2021, published 2025).

Biological target: T1, CDK9/CyclinT1 (Homo sapiens, UniProt P50750)
T1 construct: purchased ProQinase/Reaction Biology, USA #0371-0345-1
Experiment: CDK9/T1 ADPGlo kinase assay
Format: biochemical
Settings: CDK9/CyclinT1 6 nM, ATP 10 microM, PDKtide 40 microM, 120 min RT
Procedure: The testing compound was evaluated in 12 concentrations in a 1:3 dilution series, starting from 5microM as the highest concentration.
In a white 384 microplate (Greiner bio-one, Austria #784904,) with 2 microL of 3-fold concentrated CDK9/CyclinT1 (ProQinase/Reaction Biology, USA #0371-0345-1, LOT.: 012), final concentration (f.c.) 6 nM, in 1×kinase buffer, 2 microL of compound (3× fold concentrated in f.c. 1.66% DMSO/H2O) was added and incubated at Room Temperature (RT) for 10 min. Then 2 microL of Substrate/ATP-Mix (3×PDKtide f.c. 40 microM, SignalChem Biotech, Canada via Biozol, Eching, Germany #P10-58, LOT.: L2230-7 and 3×UltraPure ATP f.c. 10 microM (ADP Glo Kinase assay, Promega GmbH, Germany #V9102)) were added, mixed and incubated for 120 min at RT.
After incubation time, 5 microL of ADP Glo reagent (ready to use, ADP Glo Kinase assay, Promega GmbH, Germany #V9102) were added, mixed and incubated for 40 min at RT.
In the last step, 10 microL of ADP Glo Detection reagent (ready to use, ADP Glo Kinase assay, Promega GmbH, Germany #V9102) were added, mixed and incubated for 30 min at RT.
GloMax Discover GM3000 Reader (Promega GmbH, Germany 9700000249) was used for the readout.
The inhibitor concentration was plotted against the luminescence to determine the IC50 using XLFit 5.5 (IDBS, Guildford) to fit to a sigmoidal dose response curve with a variable slope.

T1 sequence (P50750 whole entry): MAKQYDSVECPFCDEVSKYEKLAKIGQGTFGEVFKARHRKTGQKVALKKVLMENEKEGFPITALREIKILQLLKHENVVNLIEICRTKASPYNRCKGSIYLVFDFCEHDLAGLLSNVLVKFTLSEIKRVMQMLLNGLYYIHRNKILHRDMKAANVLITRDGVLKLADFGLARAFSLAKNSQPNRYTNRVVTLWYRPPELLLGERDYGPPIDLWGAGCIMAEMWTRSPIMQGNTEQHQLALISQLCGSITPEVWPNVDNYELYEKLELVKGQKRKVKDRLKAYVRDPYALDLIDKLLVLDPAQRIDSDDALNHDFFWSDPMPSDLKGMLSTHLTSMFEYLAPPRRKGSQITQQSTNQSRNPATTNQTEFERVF
T1 sequence (O60563 whole entry partner): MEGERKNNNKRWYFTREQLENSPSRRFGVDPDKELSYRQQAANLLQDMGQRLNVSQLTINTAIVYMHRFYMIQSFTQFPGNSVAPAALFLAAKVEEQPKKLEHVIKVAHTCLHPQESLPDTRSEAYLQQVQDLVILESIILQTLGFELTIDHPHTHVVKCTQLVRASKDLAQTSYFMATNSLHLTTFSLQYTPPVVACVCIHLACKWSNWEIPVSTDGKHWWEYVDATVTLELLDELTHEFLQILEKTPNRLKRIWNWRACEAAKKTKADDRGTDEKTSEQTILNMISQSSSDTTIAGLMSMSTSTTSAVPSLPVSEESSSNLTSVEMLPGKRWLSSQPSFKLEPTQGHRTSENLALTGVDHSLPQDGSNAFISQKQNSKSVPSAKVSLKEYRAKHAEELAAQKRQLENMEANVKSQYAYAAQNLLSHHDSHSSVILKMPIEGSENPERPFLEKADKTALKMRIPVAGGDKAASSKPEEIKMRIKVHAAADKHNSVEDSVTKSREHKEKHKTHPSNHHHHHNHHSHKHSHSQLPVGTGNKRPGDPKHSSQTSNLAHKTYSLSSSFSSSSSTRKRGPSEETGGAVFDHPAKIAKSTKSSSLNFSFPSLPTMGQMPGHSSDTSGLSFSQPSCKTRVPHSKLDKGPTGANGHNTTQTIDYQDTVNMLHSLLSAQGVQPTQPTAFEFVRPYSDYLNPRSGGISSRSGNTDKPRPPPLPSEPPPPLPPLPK

Row | SMILES | IC50 [nM]
1 | CCOc1cc(Nc2nc(-c3c(F)cccc3Cl)nc3ccnn23)ccc1C1=CCN(C2CC2)CC1 [Example #34, 2-(2-chloro-6-fluorophenyl)-N-(4-(1-cyclopropyl-1,2,3,6-tetrahydropyridin-4-yl)-3-ethoxyphenyl)pyrazolo[1,5-a][1,3,5]triazin-4-amine] | < 1000
2 | Fc1cccc(F)c1-c1nc(Nc2ccc(N3CCC(N4CCOCC4)CC3)cc2)n2nccc2n1 [Example #43, 2-(2,6-difluorophenyl)-N-(4-(4-morpholinopiperidin-1-yl)phenyl)pyrazolo[1,5-a][1,3,5]triazin-4-amine] | < 1000
3 | CN(CCCF)[C@H]1CC[C@H](Nc2nc(-c3c(F)cccc3F)nc3c(Cl)cnn23)CC1 [Example #135, (1r,4r)-N1-(8-chloro-2-(2,6-difluorophenyl)pyrazolo[1,5-a][1,3,5]triazin-4-yl)-N4-(3-fluoropropyl)-N4-methylcyclohexane-1,4-diamine] | < 20
4 | COC(=O)N1CCC(n2cc(Nc3nc(-c4c(F)cccc4F)nc4ccnn34)cn2)CC1 [Example #82, methyl-4-(4-((2-(2,6-difluorophenyl)pyrazolo[1,5-a][1,3,5]triazin-4-yl)amino)-1H-pyrazol-1-yl)piperidine-1-carboxylate] | < 1000
5 | Fc1cccc(F)c1-c1nc(Nc2cnn(C3CCN(CC4CC4)CC3)c2)n2ncc(Cl)c2n1 [Example #100, 8-chloro-N-(1-(1-(cyclopropylmethyl)piperidin-4-yl)-1H-pyrazol-4-yl)-2-(2,6-difluorophenyl)pyrazolo[1,5-a][1,3,5]triazin-4-amine] | < 20
6 | Fc1cccc(F)c1-c1nc(Nc2cnn(C3CCN(C4COC4)CC3)c2)n2nccc2n1 [Example #84, 2-(2,6-difluorophenyl)-N-(1-(1-(oxetan-3-yl)piperidin-4-yl)-1H-pyrazol-4-yl)pyrazolo[1,5-a][1,3,5]triazin-4-amine] | < 1000
7 | Fc1cccc(F)c1-c1nc(Nc2cnn(C3CCN(C4CCOCC4)CC3)c2)n2ncc(Br)c2n1 [Example #94, 8-bromo-2-(2,6-difluorophenyl)-N-(1-(1-(tetrahydro-2H-pyran-4-yl)piperidin-4-yl)-1H-pyrazol-4-yl)pyrazolo[1,5-a][1,3,5]triazin-4-amine] | < 200
8 | O=C(NC1CCOCC1)c1ccc(Nc2nc(-c3c(F)cccc3F)nc3ccnn23)cc1 [Example #29, 4-((2-(2,6-difluorophenyl)pyrazolo[1,5-a][1,3,5]triazin-4-yl)amino)-N-(tetrahydro-2H-pyran-4-yl)benzamide] | < 1000
9 | CN1CCN([C@H]2CC[C@H](Nc3nc(-c4c(F)cccc4F)nc4c(Cl)cnn34)CC2)CC1 [Example #144, 8-chloro-2-(2,6-difluorophenyl)-N-((1r,4r)-4-(4-methylpiperazin-1-yl)cyclohexyl)pyrazolo[1,5-a][1,3,5]triazin-4-amine] | < 20
10 | N[C@H]1CC[C@H](Nc2nc(-c3c(F)cccc3F)nc3c(C(F)(F)F)cnn23)CC1 [Example #118, (1r,4r)-N1-(2-(2,6-difluorophenyl)-8-(trifluoromethyl)pyrazolo[1,5-a][1,3,5]triazin-4-yl)cyclohexane-1,4-diamine] | < 20
11 | OCCN[C@H]1CC[C@H](Nc2nc(-c3c(F)cccc3F)nc3c(Cl)cnn23)CC1 [Example #127, 2-(((1r,4r)-4-((8-chloro-2-(2,6-difluorophenyl)pyrazolo[1,5-a][1,3,5]triazin-4-yl)amino)cyclohexyl)amino)ethan-1-ol] | < 20
12 | CCOc1cc(Nc2nc(-c3c(F)cccc3F)nc3ccnn23)ccc1C1CCN(C)CC1 [Example #20, 2-(2,6-difluorophenyl)-N-(3-ethoxy-4-(1-methylpiperidin-4-yl)phenyl)pyrazolo[1,5-a][1,3,5]triazin-4-amine] | < 1000
13 | Fc1cccc(F)c1-c1nc(Nc2ccc(N3CCOCC3)cc2)n2nccc2n1 [Example #37, 2-(2,6-difluorophenyl)-N-(4-morpholinophenyl)pyrazolo[1,5-a][1,3,5]triazin-4-amine] | < 1000
14 | CN(CCO)C1CCC(Nc2nc(-c3c(F)cccc3F)nc3c(Cl)cnn23)CC1 (stereo not drawn) [Example #133, 2-(((1r,4r)-4-((8-chloro-2-(2,6-difluorophenyl)pyrazolo[1,5-a][1,3,5]triazin-4-yl)amino)cyclohexyl)(methyl)amino)ethan-1-ol] | < 20
15 | Fc1cccc(F)c1-c1nc(N[C@H]2CC[C@H](N3CCOCC3)CC2)n2ncc(I)c2n1 [Example #140, 2-(2,6-difluorophenyl)-8-iodo-N-((1r,4r)-4-morpholinocyclohexyl)pyrazolo[1,5-a][1,3,5]triazin-4-amine] | < 200
16 | CN(C)[C@H]1CC[C@H](Nc2nc(-c3c(F)cccc3F)nc3c(C(F)(F)F)cnn23)CC1 [Example #120, (1r,4r)-N1-(2-(2,6-difluorophenyl)-8-(trifluoromethyl)pyrazolo[1,5-a][1,3,5]triazin-4-yl)-N4,N4-dimethylcyclohexane-1,4-diamine] | < 200
17 | N#Cc1cnn2c(N[C@H]3CC[C@H](N4CCOCC4)CC3)nc(-c3c(F)cccc3F)nc12 [Example #93, 2-(2,6-difluorophenyl)-4-(((1r,4r)-4-morpholinocyclohexyl)amino)pyrazolo[1,5-a][1,3,5]triazine-8-carbonitrile] | < 200
18 | NC1CCC(Nc2nc(-c3c(F)cccc3F)nc3c(Cl)cnn23)C1 (stereo not drawn) [Example #117, N1-(8-chloro-2-(2,6-difluorophenyl)pyrazolo[1,5-a][1,3,5]triazin-4-yl)cyclopentane-1,3-diamine] | < 20
19 | CC(C)(C)N1CCN(c2ccc(Nc3nc(-c4ccccc4F)nc4ccnn34)cc2)CC1 [Example #54, N-(4-(4-(tert-butyl)piperazin-1-yl)phenyl)-2-(2-fluorophenyl)pyrazolo[1,5-a][1,3,5]triazin-4-amine] | < 1000
20 | CCOc1cc(Nc2nc(-c3c(F)cccc3F)nc3ccnn23)ccc1N1CCN(C)CC1 [Example #8, 2-(2,6-difluorophenyl)-N-(3-ethoxy-4-(4-methylpiperazin-1-yl)phenyl)pyrazolo[1,5-a][1,3,5]triazin-4-amine] | < 1000
21 | N[C@@H]1CC[C@@H](Nc2nc(-c3c(F)cccc3F)nc3c(Cl)cnn23)C1 [Example #116, (1R,3R)-N1-(8-chloro-2-(2,6-difluorophenyl)pyrazolo[1,5-a][1,3,5]triazin-4-yl)cyclopentane-1,3-diamine] | < 20
22 | FCCN1CCC(n2cc(Nc3nc(-c4c(F)cccc4F)nc4ccnn34)cn2)CC1 [Example #81, 2-(2,6-difluorophenyl)-N-(1-(1-(2-fluoroethyl)piperidin-4-yl)-1H-pyrazol-4-yl)pyrazolo[1,5-a][1,3,5]triazin-4-amine] | < 200
23 | Cc1cc(F)c(-c2nc(NC3CCC(N(C)C)CC3)n3ncc(Cl)c3n2)c(F)c1 (stereo not drawn) [Example #132, (1r,4r)-N1-(8-chloro-2-(2,6-difluoro-4-methylphenyl)pyrazolo[1,5-a][1,3,5]triazin-4-yl)-N4,N4-dimethylcyclohexane-1,4-diamine] | < 200
24 | CN1CCC(N2CCC(n3cc(Nc4nc(-c5c(F)cccc5F)nc5c(Cl)cnn45)cn3)CC2)CC1 [Example #96, 8-chloro-2-(2,6-difluorophenyl)-N-(1-(1′-methyl-[1,4′-bipiperidin]-4-yl)-1H-pyrazol-4-yl)pyrazolo[1,5-a][1,3,5]triazin-4-amine] | < 200
25 | CC(C)(C)N1CCN(c2ccc(Nc3nc(-c4c(F)cccc4F)nc4ccnn34)cc2)CC1 [Example #45, N-(4-(4-(tert-butyl)piperazin-1-yl)phenyl)-2-(2,6-difluorophenyl)pyrazolo[1,5-a][1,3,5]triazin-4-amine] | < 200
26 | Cn1cc(Nc2nc(-c3c(F)cccc3F)nc3c(Cl)cnn23)cn1 [Example #104, 8-chloro-2-(2,6-difluorophenyl)-N-(1-methyl-1H-pyrazol-4-yl)pyrazolo[1,5-a][1,3,5]triazin-4-amine] | < 20
27 | Cc1cnn2c(Nc3cnn(C4CCN(C5CCOCC5)CC4)c3)nc(-c3c(F)cccc3F)nc12 [Example #77, 2-(2,6-difluorophenyl)-8-methyl-N-(1-(1-(tetrahydro-2H-pyran-4-yl)piperidin-4-yl)-1H-pyrazol-4-yl)pyrazolo[1,5-a][1,3,5]triazin-4-amine] | < 200
28 | CN(C)C1CCC(Nc2nc(-c3c(F)cc(F)cc3F)nc3c(Cl)cnn23)CC1 (stereo not drawn) [Example #131, (1r,4r)-N1-(8-chloro-2-(2,4,6-trifluorophenyl)pyrazolo[1,5-a][1,3,5]triazin-4-yl)-N4,N4-dimethylcyclohexane-1,4-diamine] | < 200
29 | Cn1cc(Nc2nc(-c3c(F)cccc3F)nc3c(C(F)(F)F)cnn23)cn1 [Example #115, 2-(2,6-difluorophenyl)-N-(1-methyl-1H-pyrazol-4-yl)-8-(trifluoromethyl)pyrazolo[1,5-a][1,3,5]triazin-4-amine] | < 1000
30 | O=C(NCC(F)(F)F)c1ccc(Nc2nc(-c3c(F)cccc3F)nc3ccnn23)cc1 [Example #26, 4-((2-(2,6-difluorophenyl)pyrazolo[1,5-a][1,3,5]triazin-4-yl)amino)-N-(2,2,2-trifluoroethyl)benzamide] | < 1000
